In data set [1] the test system is Type II collagen-induced arthritis in DBA/1J mice. In words: Type II collagen-induced arthritis in DBA/1J mice. The following applies: dose showing significant inhibitory effect on arthritis, oral, once a day for three weeks from booster immunization; for minimal effective dose: Mus musculus, 504 h. Format: in vivo, mouse. The procedure:
Effect on Type II Collagen-Induced Arthritis in DBA/1J Mice
An emulsion was prepared by mixing bovine II collagen (100-200 μg purchased from collagen Gijyutsu Kenshuukai) and Freund's complete adjuvant (Sigma Aldrich) containing killed Mycobacterium tuberculosis H37Ra. Arthritis was induced by immunization through subcutaneous administration of the emulsion to the tail of 6-7 week-old male DBA/1J mouse (Charles River Japan, Inc.), followed by booster immunization three weeks later by administration of an emulsion prepared by mixing bovine II collagen with Freund's incomplete adjuvant (Sigma-Aldrich). Test compound was suspended or dissolved in 0.5% carboxymethylcellulose (Sigma-Aldrich) and repeatedly administered orally once a day at a dose of 0.1 to 10 mg/kg body weight using an oralsonde for three weeks from the day of booster immunization. In this model, the symptom of arthritis of the limbs was each evaluated according to the following evaluation criteria of 0 to 4 scores: 0, No change; 1, edema in only one joint; 2, edema in two or more joints, or light edema of the entire limb; 3, severe edema of the entire limb; 4, severe edema of the entire limb and ankylosis and immovability of joint. The score of arthritis of each mouse was expressed as the total of the scores of the limbs (Maximum: 16 points). On the next day of the last administration, soft X-ray photograph of the limbs was taken with soft X-ray equipment (Omic), and the level of joint destruction was evaluated by observation under a microscope. In each finger of the limbs the score of joint destruction was judged as 0 when no joint destruction was found, and as 1 when one or more destruction was found, and the score of joint destruction of a mouse was expressed as the total of scores for each finger of limb (Maximum: 20). The arthritis score and joint destruction score were expressed as the average value and standard error for each group (n=6-8). Only a vehicle was administered in a control group, and statistical analysis was performed by Dunnett's multiple comparison test, in which the case was judged as significant when the p value was less than 0.05.

Data set [2] relates to IL-17 production of mouse spleen cells stimulated by rm-IL-23. In words: Production of IL-17 induced when mouse spleen cells were stimulated by recombinant mouse interleukin-23 (rm-IL-23). Format: cell-based. Particulars: Mus musculus, 72 h, inhibition of IL-17 production, DBA/1J mouse spleen cells, rm-IL-23 1 nmol/L, ELISA. The essentials: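 Spleen cells from 6-7 week-old male DBA/1J mice, 2×10^5 cells/well in 10% FCS RPMI1640, cultured 72 h at 37° C with compound (1 to 1,000 nmol/L) plus 1 nmol/L rm-IL-23. IL-17 in supernatant by ELISA; viability by WST-8 absorbance at 450 nm; IC50 by linear regression of inhibition rate.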
In general terms: An ELISA detects its analyte on a solid surface through an enzyme-linked reagent.

Data set [3] concerns the target hERG (Homo sapiens, UniProt Q12809). In words: Effects on hERG current (whole-cell clamping). Particulars: human, HEK 293 cells that express hERG, pH 7.4, hERG inhibition rate (%) (1 μM), 1 μM; tail peak current; hERG-expressed HEK 293 cells. A general note: Block of hERG is tested as a sign of cardiac risk.
Protocol: Dimethylsulfoxide was used as a vehicle and hERG-expressed HEK 293 cells (Cytomyx) were used as test cells. Test cells were once cultured and subdivided and were stored under frozen condition in liquid nitrogen. In the study, thawed and subcultured cells having less than 30 of the passage number were used. Test cells were cultured in a carbon dioxide incubator BNP-110M (Tabai Espec Corp.) at 37±1° C., and 5.0±0.5% of carbon dioxide concentration. The component of culture medium was MEM (Minimum Essential Medium) supplemented with 10 vol % fetal bovine serum (non-activated), 1 mmol/L sodium pyruvate, 0.1 mmol/L non-essential amino acid, 100 U/mL penicillin with 100 μg/mL streptomycin. To select gene-expressing cells, 400 μg/mL G418 Sulphate (Invitrogen) was added to the culture medium. In the dishes for the measurement, the medium which not contain G418 Sulphate (Invitrogen) was used.
As to seeding of cells for measurement, subcultured cells which became confluent were treated with 0.25% trypsin-solution containing 1 mmol/L EDTA (Invitrogen) to remove from the plate, and seeded on sterilized collagen-coated cover glass (Iwaki, AGC Techno Glass Co., LTD). The medium was exchanged appropriately, including the day of measurement.
A perfusion method was applied to the experiment. Test cells were perfused (perfusion speed: approximately 4 mL/min) with an external solution containing specified concentrations of test compounds (component of external solution: 137 mmol/L of sodium chloride, 4 mmol/L of potassium chloride, 10 mmol/L of HEPES, 1.8 mmol/L of calcium chloride, 1 mmol/L of magnesium chloride and 10 mmol/L of glucose; adjusted to pH 7.4±0.1 with sodium hydroxide aqueous solution). […] When effects were observed, the perfusion was continued until the maximum response was observed. […] The data were obtained from one experiment or more and the cells which were incubated in a carbon dioxide incubator after seeding and attached to cover slips were used for the measurement.
A whole-cell clamping method was applied to the measurement. Test cells were perfused (perfusion speed: approximately 4 mL/min) with an external solution (component of external solution: 137 mmol/L of sodium chloride, 4 mmol/L of potassium chloride, 10 mmol/L of HEPES, 1.8 mmol/L of calcium chloride, 1 mmol/L of magnesium chloride and 10 mmol/L of glucose; adjusted to pH 7.4±0.1 with sodium hydroxide aqueous solution). A glass electrode with a resistance of 2 to 6 MΩ, filled with an internal solution (component: 130 mmol/L of potassium chloride, 1 mmol/L of magnesium chloride, 5 mmol/L of EGTA, 10 mmol/L of HEPES and 5 mmol/L of ATP adjusted to pH 7.2±0.1 with sodium hydroxide aqueous solution) was used. After rupturing cell membrane with glass electrode, the cell membrane voltage was held at −80 mV via a patch clamp software (pCLAMP9 [Axon CNS], Molecular Devices) using patch clamp amplifier (EPC8, HEKA). […] Test cells and the cell-attached cover glass were changed every treatment. Temperature of the fluid in a perfusion fluid tank was 24±2° C.
The obtained current was recorded on a computer via a patch clamp amplifier using patch clamp software. An evaluation item was a tail peak current.
A tail peak current was analyzed using analyzing software (Clampfit 9 [Axon CNS], MolecularDevices). Each 2 pulses of before and after perfusion of test compound for each concentration was analyzed, and a peak values of the tail current on the pulses were determined. The inhibition ratio was determined according to the following equation:

Sequence of hERG (Q12809 whole entry): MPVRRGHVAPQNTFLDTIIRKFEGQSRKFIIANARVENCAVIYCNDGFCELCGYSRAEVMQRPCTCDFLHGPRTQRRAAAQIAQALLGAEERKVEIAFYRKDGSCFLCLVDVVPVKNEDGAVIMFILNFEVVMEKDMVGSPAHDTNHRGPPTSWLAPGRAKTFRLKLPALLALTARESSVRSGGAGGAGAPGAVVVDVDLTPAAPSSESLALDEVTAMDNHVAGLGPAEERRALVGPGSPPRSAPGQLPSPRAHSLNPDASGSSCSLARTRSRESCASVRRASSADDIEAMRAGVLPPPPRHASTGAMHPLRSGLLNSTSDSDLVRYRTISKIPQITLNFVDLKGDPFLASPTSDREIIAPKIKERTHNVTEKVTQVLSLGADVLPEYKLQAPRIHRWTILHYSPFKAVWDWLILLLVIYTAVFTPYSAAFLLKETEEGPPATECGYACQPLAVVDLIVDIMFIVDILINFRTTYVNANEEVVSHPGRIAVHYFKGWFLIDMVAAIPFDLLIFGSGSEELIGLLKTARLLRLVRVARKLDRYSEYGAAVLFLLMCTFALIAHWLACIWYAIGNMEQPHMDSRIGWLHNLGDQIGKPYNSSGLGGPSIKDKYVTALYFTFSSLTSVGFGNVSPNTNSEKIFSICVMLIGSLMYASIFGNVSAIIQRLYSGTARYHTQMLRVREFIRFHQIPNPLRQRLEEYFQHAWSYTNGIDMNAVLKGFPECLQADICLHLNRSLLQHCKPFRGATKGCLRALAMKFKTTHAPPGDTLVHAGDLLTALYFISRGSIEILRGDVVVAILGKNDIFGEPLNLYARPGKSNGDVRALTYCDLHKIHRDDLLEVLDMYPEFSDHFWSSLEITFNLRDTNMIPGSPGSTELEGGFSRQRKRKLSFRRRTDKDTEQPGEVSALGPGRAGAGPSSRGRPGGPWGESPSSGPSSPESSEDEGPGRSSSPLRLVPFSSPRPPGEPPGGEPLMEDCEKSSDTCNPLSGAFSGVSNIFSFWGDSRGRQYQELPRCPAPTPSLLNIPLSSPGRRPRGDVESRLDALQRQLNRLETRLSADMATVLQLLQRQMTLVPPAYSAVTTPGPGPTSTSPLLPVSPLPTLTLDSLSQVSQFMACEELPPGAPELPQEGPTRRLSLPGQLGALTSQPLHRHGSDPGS

By minimal effective dose is commonly meant the lowest level tested that produced the effect sought. For orientation: IC50 means the midpoint of a concentration-inhibition curve. By inhibition is commonly meant the change of the read-out against control, counted positive when it falls. Low readings indicate a response near the control, high ones a response far below the control. For the compound `CS(=O)(=O)O.Cc1cc(NC(=O)c2cnn(-c3ccc(C(F)(F)F)cn3)c2C)cnc1C1=CCC(N2CCOCC2)CC1` (stereo not shown) [Example D20, 5-Methyl-N-{5-methyl-6-[4-(morpholin-4-yl)cyclohex-1-en-1-yl]pyridin-3-yl}-1-[5-(trifluoromethyl)pyridin-2-yl]-1H-pyrazole-4-carboxamide mesylate], the minimal effective dose in data set [1] was determined as 1 mg/kg. Besides, in data set [2], the half-inhibitory concentration (IC50) amounted to 0.0564 µM. For the same compound, the inhibition at 1 µM in data set [3] worked out at 32.2%.

With `Cc1c(C(=O)Nc2ccc([C@]3(C#N)CC[C@@H](N4CCOCC4)CC3)nc2)cnn1-c1ccc(C(F)(F)F)cc1` [Example D146], the minimal effective dose in data set [1] stood at 0.1 mg/kg. For the same compound, the IC50 in data set [2] is 0.0466 µM. In addition, the inhibition at 1 µM in data set [3] stood at 47.2%.

Take `Cc1c(C(=O)Nc2ccc(C3CCC(=O)CC3)nc2)cnn1-c1ccc(Cl)cc1` [Example E13]: in data set [1], the minimal effective dose turned out to be 1 mg/kg. In data set [2], the IC50 was determined as 0.109 µM. Further, in data set [3], testing at 1 µM gave an inhibition of 10.3%.

Turning to `Cc1cc(NC(=O)c2cnn(-c3ccc(C(F)(F)F)cc3)c2C)cnc1C1=CCC(N2CCOCC2)CC1` (stereo not shown) [Example E24], the minimal effective dose in data set [1] turned out to be 1 mg/kg.

`Cc1c(C(=O)Nc2ccc([C@]3(C#N)CC[C@@H](O)CC3)nc2)cnn1-c1ccc(Cl)cc1` [Example G1, 1-(4-Chlorophenyl)-N-[6-(r-1-cyano-c-4-hydroxycyclohexyl)pyridin-3-yl]-5-methyl-1H-pyrazole-4-carboxamide]: in data set [1], the minimal effective dose was 3 mg/kg. The IC50 in data set [2] stood at 0.118 µM. The same compound displayed an inhibition at 1 µM in data set [3] of 25.8%.

`Cc1c(C(=O)Nc2ccc([C@]3(C#N)CC[C@@H](O)CC3)nc2)cnn1-c1ccc(F)cc1` [Example G2, N-[6-(r-1-cyano-c-4-hydroxycyclohexyl)pyridin-3-yl]-1-(4-fluorophenyl)-5-methyl-1H-pyrazole-4-carboxamide] yielded a minimal effective dose in data set [1] of 1 mg/kg. For the same compound, the IC50 in data set [2] was 0.194 µM. The compound also displayed an inhibition at 1 µM in data set [3] of 15.2%.

In data set [1], `Cc1ccc(-n2ncc(C(=O)Nc3ccc([C@]4(C#N)CC[C@@H](O)CC4)nc3)c2C)cc1` [Example G3, N-[6-(r-1-Cyano-c-4-hydroxycyclohexyl)pyridin-3-yl]-5-methyl-1-(4-methylphenyl)-1H-pyrazole-4-carboxamide] returned a minimal effective dose of 1 mg/kg. The IC50 in data set [2] is 0.0918 µM. In data set [3], this compound showed an inhibition at 1 µM of 4.4%.

Consider `Cc1c(C(=O)Nc2ccc([C@]3(C#N)CC[C@@H](O)CC3)nc2)cnn1-c1ccc(C(F)(F)F)cc1` [Example G6], for which the “Effective Dose” value in data set [1] is 10 mg/kg. In addition, the IC50 in data set [2] was 0.0739 µM. Moreover, at 1 µM the inhibition in data set [3] was 26%.

As for `Cc1c(C(=O)Nc2ccc([C@]3(C#N)CC[C@H](O)CC3)nc2)cnn1-c1ccc(C(F)(F)F)cc1` [Example K2], the minimal effective dose in data set [1] worked out at 10 mg/kg.

As for `Cc1cc(NC(=O)c2cnn(-c3ccc(C(F)(F)F)cn3)c2C)cnc1C1=CCC(C(C)(C)O)CC1` (stereo not shown) [Example K31, N-{6-[4-(1-Hydroxy-1-methylethyl)cyclohex-1-en-1-yl]-5-methylpyridin-3-yl}-5-methyl-1-[5-(trifluoromethyl)pyridin-2-yl]-1H-pyrazole-4-carboxamide], the 50% inhibitory concentration (IC50) in data set [2] was found to be 0.00427 µM. Moreover, in data set [3], 1 µM produced 15.8% inhibition.

In the case of `Cc1c(C(=O)Nc2ccc(C3=CCC(C(C)(C)O)CC3)nc2)cnn1-c1ccc(C(F)(F)F)cn1` (stereo not shown) [Example K32, N-{6-[4-(1-Hydroxyl-methylethyl)cyclohex-1-en-1-yl]pyridin-3-yl}-5-methyl-1-[5-(trifluoromethyl)pyridin-2-yl]-1H-pyrazole-4-carboxamide], the half-inhibitory concentration (IC50) in data set [2] came out at 0.00632 µM. The inhibition at 1 µM in data set [3] turned out to be 11.3%.

For `CC[C@]1(O)CC[C@](C#N)(c2ccc(NC(=O)c3cnn(-c4ccc(F)cc4)c3C)cn2)CC1` [Example K33, N-[6-(r-1-Cyano-4-ethyl-c-4-hydroxycyclohexan-1-yl)pyridin-3-yl]-1-(4-fluorophenyl)-5-methyl-1H-pyrazole-4-carboxamide], the IC50 in data set [2] amounted to 0.206 µM. For the same compound, in data set [3], 1 µM produced 8% inhibition.

In the case of `CC[C@]1(O)CC[C@@](C#N)(c2ccc(NC(=O)c3cnn(-c4ccc(C)cc4)c3C)cn2)CC1` [Example K34, N-[6-(r-1-Cyano-4-ethyl-t-4-hydroxycyclohexan-1-yl)pyridin-3-yl]-5-methyl-1-(4-methylphenyl)-1H-pyrazole-4-carboxamide], the half-inhibitory concentration (IC50) in data set [2] was found to be 0.154 µM. Also, in data set [3], the inhibition at 1 µM was found to be 0.5%.

Take `CC[C@]1(O)CC[C@](C#N)(c2ccc(NC(=O)c3cnn(-c4ccc(C)cc4)c3C)cn2)CC1` [Example K36, N-[6-(r-1-Cyano-4-ethyl-c-4-hydroxycyclohexan-1-yl)pyridin-3-yl]-5-methyl-1-(4-methylphenyl)-1H-pyrazole-4-carboxamide]: in data set [2], the half-inhibitory concentration (IC50) was 0.124 µM. In data set [3], this compound showed an inhibition at 1 µM of 8.1%.

Turning to `Cc1c(C(=O)Nc2cnc(C3=CCC(N4CCOCC4)CC3)c(C#N)c2)cnn1-c1ccc(C(F)(F)F)cn1` (stereo not shown) [Example K38, N-{5-Cyano-6-[4-(morpholin-4-yl)cyclohex-1-en-1-yl]pyridin-3-yl}-5-methyl-1-[5-(trifluoromethyl)pyridin-2-yl]-1H-pyrazole-4-carboxamide], the concentration for half-maximal inhibition (IC50) in data set [2] stood at 0.0581 µM. Also, 1 µM produced 44.1% inhibition in data set [3].

For `Cc1cc(NC(=O)c2cnn(-c3ccc(C(F)(F)F)cn3)c2C)cnc1C1=CCN(C(=O)C(C)(C)C)CC1` [Example K41, N-{6-[1-(2,2-Dimethylpropanoyl)-1,2,3,6-tetrahydropyridin-4-yl]-5-methylpyridin-3-yl}-5-methyl-1-[5-(trifluoromethyl)pyridin-2-yl]-1H-pyrazole-4-carboxamide], the IC50 in data set [2] was found to be 0.161 µM. Also, the inhibition at 1 µM in data set [3] amounted to 25.6%.

Consider `Cc1cc(NC(=O)c2cnn(-c3ccc(C(F)(F)F)cn3)c2C)cnc1C1=CCN(S(=O)(=O)C(C)C)CC1` [Example K45, 5-Methyl-N-{5-methyl-6-[1-(propane-2-sulfonyl)-1,2,3,6-tetrahydropyridin-4-yl]pyridin-3-yl}-1-[5-(trifluoromethyl)pyridin-2-yl]-1H-pyrazole-4-carboxamide], for which, in data set [2], the 50% inhibitory concentration (IC50) was 0.0462 µM. In data set [3], this compound returned an inhibition at 1 µM of 21.1%.

For the compound `Cc1c(C(=O)Nc2ccc(C3(C#N)CCN(S(=O)(=O)C(C)C)CC3)nc2)cnn1-c1ccc(C(F)(F)F)cn1` [Example K51, N-{6-[4-Cyano-1-(propane-2-sulfonyl)piperidin-4-yl]pyridin-3-yl}-5-methyl-1-[5-(trifluoromethyl)pyridin-2-yl]-1H-pyrazole-4-carboxamide], the half-inhibitory concentration (IC50) in data set [2] came out at 0.0373 µM. The compound further gave an inhibition at 1 µM in data set [3] of 43.7%.

For `Cc1cc(NC(=O)c2cnn(-c3ccc(C(F)(F)F)cn3)c2C)cnc1C1=CCN(C(=O)N2CCCC2)CC1` [Example K52, 5-Methyl-N-{5-methyl-1-(pyrrolidin-1-ylcarbonyl)-6-[1,2,3,6-tetrahydropyridin-4-yl]pyridin-3-yl}-1-[5-(trifluoromethyl)pyridin-2-yl]-1H-pyrazole-4-carboxamide], the half-inhibitory concentration (IC50) in data set [2] is 0.16 µM. In addition, in data set [3], the inhibition at 1 µM came to 31.5%.

Regarding `Cc1cc(NC(=O)c2cnn(-c3ccc(C(F)(F)F)cn3)c2C)cnc1C1CCN(S(=O)(=O)C(C)C)CC1` [Example K55, 5-Methyl-N-{5-methyl-6-[1-(propane-2-sulfonyl)piperidin-4-yl]pyridin-3-yl}-1-[5-(trifluoromethyl)pyridin-2-yl]-1H-pyrazole-4-carboxamide], the IC50 in data set [2] was 0.0464 µM. The same compound came in with an inhibition at 1 µM in data set [3] of 29.5%.

For `Cc1cc(NC(=O)c2cnn(-c3ccc(C(F)(F)F)cn3)c2C)cnc1C1CCN(C(=O)C(F)(F)F)CC1` [Example K60, 5-Methyl-N-{5-methyl-6-[1-(trifluoroacetyl)piperidin-4-yl]pyridin-3-yl}-1-[5-(trifluoromethyl)pyridin-2-yl]-1H-pyrazole-4-carboxamide], in data set [2], the IC50 was determined as 0.0472 µM. The inhibition at 1 µM in data set [3] turned out to be 22.8%.

For `Cc1c(C(=O)Nc2cnc(C3=CCC(N(C)C(=O)C(C)(C)C)CC3)cn2)cnn1-c1ccc(C(F)(F)F)cn1` (stereo not shown) [Example K64, N-(5-{4-[N-(2,2-Dimethylpropion-1-yl)-N-methylamino]cyclohex-1-en-1-yl}pyrazin-2-yl)-5-methyl-1-[5-(trifluoromethyl)pyridin-2-yl]-1H-pyrazole-4-carboxamide], the IC50 in data set [2] is 0.157 µM. For the same compound, the inhibition at 1 µM in data set [3] was 2.3%.

Values taken from patent US9150555B2, “Amide derivative and use thereof” (Mitsubishi Tanabe Pharma Corporation, priority 2010, dated 2015).
